From patent publication US20230041996A1, “CALCIUM-SENSING RECEPTOR AGONIST COMPOUND AND APPLICATION THEREOF” (BEIJING TUO JIE BIOPHARMACEUTICAL CO. LTD., priority 2019, published 2023)
Square brackets hold non-standard residues; d marks the D form. Peptide text beside a SMILES is read from it. * marks the point of attachment. Cys(free,S-linked) = N[C@@H](CS*)C(=O)O; d2Thi = N[C@H](Cc1cccs1)C(=O)O; dAbu = CC[C@@H](N)C(=O)O

Tests used:
human red blood cells = experiment: Hemolytic effect on human red blood cells in vitro (absorbance at 540 nm); type: cell-based; conditions: 100 μg/mL in PBS, 37° C., 1 h, FIG. 1
Protocol: To evaluate the hemolytic effect of the compounds disclosed herein on red blood cells in vitro, human whole blood (100 μL) was taken and mixed with a phosphate buffer. The mixture was centrifuged at 4° C. for 10 min and the supernatant was discarded. The red blood cells were resuspended in PBS buffer (900 μL) and centrifuged at 4° C. for 10 min with the supernatant discarded, and the procedures above were repeated once. The test example compounds were dissolved in 1×PBS buffer to a final concentration of 100 μg/mL. The red blood cells were resuspended in solutions of various test example compounds, an octylphenoxy poly(ethyleneoxy)ethanol-100 solution or PBS buffer, and incubated at 37° C. for 1 h. After incubation, the cells were centrifuged at 4° C. for 10 min and the supernatant (100 μL) was pipetted and transferred to a 96-well plate. The absorbance at 540 nm was detected for evaluating the hemolytic effect of the test example compounds on red blood cells in vitro.

[1] = tested on: normal rats (Sprague Dawley); experiment: In vivo efficacy in normal rat model after a single dose (plasma parathyroid hormone, serum calcium); conditions: 3 mg/kg intravenous single dose; for serum calcium level: FIG. 3; for plasma parathyroid hormone level: within 4 h, FIG. 2
From the text: 3.4 Evaluation of In Vivo Efficacy of Some of the Compounds Disclosed Herein in a Normal Rat Model after a Single Dose 3.4.1 Objective: To Evaluate the Efficacy of the Test Compounds in Reducing Plasma Parathyroid Hormone Levels after a Single Dose in a Normal Rat Model.
SPF normal adult rats (Sprague Dawley, or SD) with weight of 250-350 g were fed with normal diet in an animal room for 7 days. Rats were randomized into groups of 6, half female and half male, and numbered. One day before the start of treatment, 540 μL of blood was collected from each rat, and the plasma parathyroid hormone level and the serum calcium concentration were measured as baseline. The plasma was separated by K2-EDTA anticoagulation. Blood was collected through jugular vein and preserved on ice after collection. The whole blood was centrifuged at 6,800 rpm for 6 minutes at 2-8° C. The supernatant, i.e., the plasma, was collected and preserved at 2-8° C. For serum separation, blood was collected through jugular vein, let stand at room temperature for 1 h, and centrifuged at room temperature at 3,500 rpm for 10 min. The supernatant, i.e., the serum, was collected and preserved at room temperature. The animals were fasted overnight with free access to water the day before treatment. The day after blood sampling, example compounds 13, 17, 31 and etelcalcetide (AMG-416) were dissolved in a phosphate buffered saline (PBS, Gibco). The rats were intravenously administered with example compounds 13, 17, 31 or etelcalcetide 3 mg/kg or an equal volume of PBS buffer. Subsequently, blood samples were collected as per the following procedures for measuring the parameters. 100 μL of blood was collected at 1 h, 2 h and 4 h post-dose, and the plasma was separated according to the procedures above. The plasma parathyroid hormone levels were measured using the Rat Intact PTH ELISA Kit (Quidel—Immunotopics, Cat. #: 60-2500; ELISA: Enzyme-linked immunosorbent assay) according to the kit instructions. The detailed procedures are as follows: using the streptavidin-preplated reaction strips provided in the kit, 25 μL of reference standard, control or plasma samples were added to the wells. Biotinylated rat parathyroid hormone antibody and rat parathyroid hormone/HRP binding antibody were mixed at a ratio of 1:1, and 100 μL of the mixed solution was added to each well. The reaction strip was sealed with a sealing film, wrapped with an aluminum foil for storage in dark, and shaken on a horizontal shaker at room temperature for 3 h at a rotation speed of 220 rpm. The solutions in the wells were discarded. 350 μL of cleaning working solution was added to the wells for washing and then discarded; 5 washes were performed with the same procedures. Finally the wells were dried. To each well was added 150 μL of horseradish peroxidase ELISA substrate. The reaction strip was sealed with a sealing film, wrapped with an aluminum foil for storage in dark, and shaken on a horizontal shaker at room temperature for 30 min at a rotation speed of 180-220 rpm. 100 μL of ELISA terminating solution was added to each well, and the strip was shaken at 180-220 rpm for 1 min on a horizontal shaker at room temperature. The absorbance at 450 nm in each well was detected within 10 min after the addition of the ELISA terminating solution, while the absorbance at 620 nm was subtracted as background. A mixture of horseradish peroxidase ELISA substrate 150 μL and ELISA terminating solution 100 μL was used as the blank control in the absorbance detection. A standard curve according to the absorbance of the reference standard was plotted, and the actual plasma parathyroid hormone concentration was calculated according to the absorbance of other samples and the standard curve. The determination of the serum calcium concentration was conducted according to the procedures of the relevant kit.

SMILES | hemolytic effect on red blood cells (human red blood cells) | serum calcium level [1] | plasma parathyroid hormone level [1]
CC[C@@H](NC(=O)[C@@H](CCCNC(=N)N)NC(=O)[C@@H](CCCNC(=N)N)NC(=O)[C@@H](CSSC[C@H](N)C(=O)O)NC(C)=O)C(=O)N[C@H](CCCNC(=N)N)C(=O)N[C@H](CO)C(=O)N[C@H](CCCNC(=N)N)C(N)=O [Compound 31, Ac-c(C)-r-r-(D-Abu)-r-s-r-NH2] (Ac-[dC](Cys(free,S-linked))[dR][dR][dAbu][dR][dS][dR]-NH2) | no significant hemolytic effect | corresponding reduction | completely reduced
CC[C@@H](NC(=O)[C@@H](CCCNC(=N)N)NC(=O)[C@@H](CCCNC(=N)N)NC(=O)[C@@H](CSSC[C@H](N)C(=O)O)NC(C)=O)C(=O)N[C@H](CCCNC(=N)N)C(=O)N[C@H](C)C(=O)N[C@H](CCCNC(=N)N)C(N)=O [Compound 17, Ac-c(C)-r-r-(D-Abu)-r-a-r-NH2] (Ac-[dC](Cys(free,S-linked))[dR][dR][dAbu][dR][dA][dR]-NH2) | no significant hemolytic effect | corresponding reduction | completely reduced
CC(=O)N[C@H](CSSC[C@H](N)C(=O)O)C(=O)N[C@H](CCCNC(=N)N)C(=O)N[C@H](CCCNC(=N)N)C(=O)N[C@H](Cc1cccs1)C(=O)N[C@H](CCCNC(=N)N)C(=O)N[C@H](C)C(=O)N[C@H](CCCNC(=N)N)C(N)=O [Compound 13, Ac-c(C)-r-r-(D-2-Thi)-r-a-r-NH2] (Ac-[dC](Cys(free,S-linked))[dR][dR][d2Thi][dR][dA][dR]-NH2) | no significant hemolytic effect | corresponding reduction | completely reduced
